Laboratory results reported in PubChem BioAssay AID1918932 (Molecular Pharmacology Branch, DTP, NCI, 2023).
pIC50: −log10 of the molar value.

Test system: 171881-019-R-J1-PDC complex spheroid viability
Test: Anticancer human tumor 171881-019-R-J1-PDC patient-derived invasive breast carcinoma cell line growth inhibition
Details: for pIC50: curve of first compound; for viability, T/C: stronger effect = lower value; active = viability on the fitted dose curve at most 10% of control; inactive = the rest
Description: Multicellular complex tumor spheroid response to LSD1 Inhibitor Iadademstat in combination with a variety of drugs and investigational agents in selected tumor cell lines
The current study was undertaken to assess response to LSD1 inhibitors in combination with standard-of-care drugs and investigational agents in solid tumor complex spheroid models as well as in the K-562 leukemia. Complex spheroids include a stromal component modeled by human endothelial cells (HUVEC) and fibroblasts modeled by human mesenchymal stem cells (MSCs). The concentration ranges selected for each drug and investigational agent were based upon clinically achievable concentrations if the clinical Cmax of the agent was known.
Compounds. The drugs and investigational agents used in this study are listed on Table 1. All of the agents used, including staurosporine (NSC755774) and gemcitabine (NSC613327), were obtained from the Developmental Therapeutics Program, NCI. FDA-approved anticancer drugs are available from the NCI at http://dtp.nci.nih.gov/branches/dscb/oncology_drugset_explanation.html. Drugs and investigational agents were >95% pure by proton nuclear magnetic resonance (NMR) and liquid chromatography/mass spectrometry (LC/MS). Stock solutions were prepared at 400x in DMSO, stored at -70 degrees C, and diluted in fresh medium prior to their use. The final concentration of DMSO in cell culture wells never exceeded 0.25% (v/v). The FDA-approved anticancer drug set is available from the Developmental Therapeutics Program at https://dtp.cancer.gov/organization/dscb/obtaining/available_plates.htm. All drugs and investigational agents were tested over a range starting from a high concentration at or near the clinical Cmax and decreasing in half-log increments. If the clinical Cmax for an agent had not been determined, the highest concentration tested was 10 microM.
Cell Lines. The patient-derived cancer cell (PDC) lines: 292921-168-R-J2-PDC, K24384-001-R-PDC, and 521955-158-R2-J5-PDC pancreatic carcinomas, 556581-035-R-J1 ovarian carcinoma, 324938-238-R-J1-PDC, 855422-203-R-J1-PDC and 883617-216-R-J1-PDC urothelial bladder carcinomas, 743489-274-T-PDC renal cell carcinoma, 138582-R-J1 Merkel cell tumor, K60290-347-R-J1 and K57222-313-R-J1-PDC glioblastomas, 653999-131-R-J2-PDC, LG0703-F948-PDC, and 349418-098-R-PDC non-small cell lung carcinomas, 885512-296-R-J2-PDC, 171881-019-R-J1-PDC breast carcinomas and 186277-243-T-J2-PDC and 233499-124-R-J2-PDC colon carcinomas were obtained from the NCI Patient-Derived Models Repository (PDMR, https://pdmr.cancer.gov). The established cell lines NCI/ADR-RES (RRID:CVCL_14520 and OVCAR-5 (RRID:CVCL_1628) ovarian carcinomas, 786-O (RRID:CVCL_1051) and A498 (RRID:CVCL_A498) renal cell carcinoma, NCI-H211 (ATCC, cat. CRL-5824; RRID:CVCL_1529), NCI-H196 (ATCC, cat. CRL-5823, RRID:CVCL_1509), SW 1271 (ATCC, cat. CRL-2177, RRID:CVCL_1716) and NCI-H1876 (ATCC, cat. CRL-5902, RRID:CVCL_1503) small cell lung carcinomas, MDA-MB-231 (RRID:CVCL_0062) and MDA-MB-468 (RRID:CVCL_0419)breast carcinomas (10-12). Pooled donor human umbilical vein endothelial cells (HUVEC, Lonza, cat. CC-2519) and human mesenchymal stem cells (hMSC, Lonza, cat. PT-2501) were purchased from Lonza (Walkersville, MD).
Cell Culture. All cells were maintained in an incubator at 37 degrees C and 5% CO2 with 95% humidity. The PDC lines were cultured according to standard operating procedures established by the NCI PDMR (https://pdmr.cancer.gov). Briefly all PDCs were thawed and cultured in Matrigel-coated flasks prepared with a working solution of 1X Ham's F-12 nutrient mix, without supplementation (Invitrogen, Waltham, MA, cat. 11765054), 100 U/mL penicillin-streptomycin (Invitrogen, cat. 15140122), and 2.5% Matrigel (Corning Inc., Corning, NY, cat. 354248) for the first three passages. […]

[1] = second compound 0.1 µM, first compound 0.00316 µM
[2] = second compound 0.1 µM, first compound 0.01 µM
[3] = second compound 0.1 µM, first compound 0.0316 µM
[4] = second compound 0.1 µM, first compound 0.1 µM
[5] = second compound 0.316 µM, first compound 0.00316 µM
[6] = second compound 0.316 µM, first compound 0.01 µM
[7] = second compound 0.316 µM, first compound 0.0316 µM
[8] = second compound 0.316 µM, first compound 0.1 µM
[9] = second compound 1 µM, first compound 0.00316 µM
[10] = second compound 1 µM, first compound 0.01 µM
[11] = second compound 1 µM, first compound 0.0316 µM
[12] = second compound 1 µM, first compound 0.1 µM
[13] = second compound 3.16 µM, first compound 0.00316 µM
[14] = second compound 3.16 µM, first compound 0.01 µM
[15] = second compound 3.16 µM, first compound 0.0316 µM
[16] = second compound 3.16 µM, first compound 0.1 µM
[17] = second compound 10 µM, first compound 0.00316 µM
[18] = second compound 10 µM, first compound 0.01 µM
[19] = second compound 10 µM, first compound 0.0316 µM
[20] = second compound 10 µM, first compound 0.1 µM
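Note: spheroids exposed to agents for 7 days after 3 days growth.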

CC[C@@]1(O)C(=O)OCc2c1cc1n(c2=O)Cc2cc3c(CN(C)C)c(O)ccc3nc2-1 + NC1CC1c1ccc(-c2cccc(O)c2)cc1
7.43: pIC50 (second compound 3.16 µM)
7.09: pIC50 (second compound 0.316 µM)
inactive: viability, T/C (second compound 0.1 µM, first compound 0.000316 µM) 103% | viability, T/C (second compound 0.1 µM, first compound 0.001 µM) 104% | viability, T/C [1] 84.4% | viability, T/C [2] 68.9% | viability, T/C [3] 64.3% | viability, T/C [4] 44.2% | viability, T/C (second compound 0.316 µM, first compound 0.000316 µM) 108% | viability, T/C (second compound 0.316 µM, first compound 0.001 µM) 107% | viability, T/C [5] 87.8% | viability, T/C [6] 70.5% | viability, T/C [7] 61.9% | viability, T/C [8] 46.4% | viability, T/C (second compound 1 µM, first compound 0.000316 µM) 103% | viability, T/C (second compound 1 µM, first compound 0.001 µM) 105% | viability, T/C [9] 90.7% | viability, T/C [10] 70.3% | viability, T/C [11] 53.2% | viability, T/C [12] 39.6% | viability, T/C (second compound 3.16 µM, first compound 0.000316 µM) 101% | viability, T/C (second compound 3.16 µM, first compound 0.001 µM) 96.7% | viability, T/C [13] 90.5% | viability, T/C [14] 66.8% | viability, T/C [15] 55.9% | viability, T/C [16] 33.6% | viability, T/C (second compound 10 µM, first compound 0.000316 µM) 90.1% | viability, T/C (second compound 10 µM, first compound 0.001 µM) 85.3% | viability, T/C [17] 78.9% | viability, T/C [18] 57.3% | viability, T/C [19] 47% | viability, T/C [20] 37.4%
7.68: pIC50 (second compound 10 µM)
7.44: pIC50 (second compound 1 µM)
7.15: pIC50 (second compound 0.1 µM)

COc1cc(C2c3cc4c(cc3C(OC3OC5COC(C)OC5C(O)C3O)C3COC(=O)C23)OCO4)cc(OC)c1O (stereo not given) + NC1CC1c1ccc(-c2cccc(O)c2)cc1
6.12: pIC50 (second compound 0.1 µM)
6.10: pIC50 (second compound 1 µM)
6.00: pIC50 (second compound 0.316 µM)
6.26: pIC50 (second compound 3.16 µM)
inactive: viability, T/C (second compound 0.1 µM, first compound 0.00949 µM) 102% | viability, T/C (second compound 0.1 µM, first compound 0.03 µM) 97% | viability, T/C (second compound 0.1 µM, first compound 0.0949 µM) 74% | viability, T/C (second compound 0.1 µM, first compound 0.3 µM) 64% | viability, T/C (second compound 0.1 µM, first compound 0.949 µM) 48.3% | viability, T/C (second compound 0.1 µM, first compound 3 µM) 29.2% | viability, T/C (second compound 0.316 µM, first compound 0.00949 µM) 105% | viability, T/C (second compound 0.316 µM, first compound 0.03 µM) 101% | viability, T/C (second compound 0.316 µM, first compound 0.0949 µM) 80.8% | viability, T/C (second compound 0.316 µM, first compound 0.3 µM) 69.6% | viability, T/C (second compound 0.316 µM, first compound 0.949 µM) 51.4% | viability, T/C (second compound 0.316 µM, first compound 3 µM) 33.3% | viability, T/C (second compound 1 µM, first compound 0.00949 µM) 105% | viability, T/C (second compound 1 µM, first compound 0.03 µM) 95.3% | viability, T/C (second compound 1 µM, first compound 0.0949 µM) 84.9% | viability, T/C (second compound 1 µM, first compound 0.3 µM) 66.4% | viability, T/C (second compound 1 µM, first compound 0.949 µM) 46.9% | viability, T/C (second compound 1 µM, first compound 3 µM) 28.1% | viability, T/C (second compound 3.16 µM, first compound 0.00949 µM) 103% | viability, T/C (second compound 3.16 µM, first compound 0.03 µM) 99.9% | viability, T/C (second compound 3.16 µM, first compound 0.0949 µM) 78.7% | viability, T/C (second compound 3.16 µM, first compound 0.3 µM) 59% | viability, T/C (second compound 3.16 µM, first compound 0.949 µM) 43.6% | viability, T/C (second compound 3.16 µM, first compound 3 µM) 27.9% | viability, T/C (second compound 10 µM, first compound 0.00949 µM) 84.3% | viability, T/C (second compound 10 µM, first compound 0.03 µM) 78.2% | viability, T/C (second compound 10 µM, first compound 0.0949 µM) 69.1% | viability, T/C (second compound 10 µM, first compound 0.3 µM) 51.3% | viability, T/C (second compound 10 µM, first compound 0.949 µM) 41.4% | viability, T/C (second compound 10 µM, first compound 3 µM) 27.4%
6.39: pIC50 (second compound 10 µM)

Nc1ncn(C2CC(O)C(CO)O2)c(=O)n1 (stereo not given) + NC1CC1c1ccc(-c2cccc(O)c2)cc1
< 6.00: pIC50 (second compound 0.1 µM) | pIC50 (second compound 0.316 µM) | pIC50 (second compound 1 µM) | pIC50 (second compound 3.16 µM) | pIC50 (second compound 10 µM)
inactive: viability, T/C [1] 102% | viability, T/C [2] 98.4% | viability, T/C [3] 97.7% | viability, T/C [4] 88.4% | viability, T/C (second compound 0.1 µM, first compound 0.316 µM) 93.8% | viability, T/C (second compound 0.1 µM, first compound 1 µM) 85.1% | viability, T/C [5] 102% | viability, T/C [6] 98.6% | viability, T/C [7] 95.1% | viability, T/C [8] 96.2% | viability, T/C (second compound 0.316 µM, first compound 0.316 µM) 90.8% | viability, T/C (second compound 0.316 µM, first compound 1 µM) 90.4% | viability, T/C [9] 106% | viability, T/C [10] 102% | viability, T/C [11] 95% | viability, T/C [12] 96.3% | viability, T/C (second compound 1 µM, first compound 0.316 µM) 92.6% | viability, T/C (second compound 1 µM, first compound 1 µM) 85.1% | viability, T/C [13] 102% | viability, T/C [14] 96% | viability, T/C [15] 95.8% | viability, T/C [16] 96% | viability, T/C (second compound 3.16 µM, first compound 0.316 µM) 87% | viability, T/C (second compound 3.16 µM, first compound 1 µM) 82.1% | viability, T/C [17] 82.4% | viability, T/C [18] 80.6% | viability, T/C [19] 81.4% | viability, T/C [20] 81% | viability, T/C (second compound 10 µM, first compound 0.316 µM) 80% | viability, T/C (second compound 10 µM, first compound 1 µM) 74.8%
